Test results reported in patent US20140227173A1, “CANCER TREATMENT WITH GAMMA-SECRETASE INHIBITORS” (The Johns Hopkins University, priority 2006, published 2014).

What was measured:
neuroblastoma cell lines = details: cited from earlier work
D283Med = assay: Side population (Hoechst 33342 excretion) flow cytometry; assay type: cell-based
Experimental: (§1) The ability to excrete Hoechst dye, which defines SP (also known as “side population”) in flow cytometric analyses, is another marker of tumor-initiating CSC in the blood and brain (7, 8, 20). SP was therefore analyzed to obtain a second measure of the effects of Notch on CSC.
(§2) Flow cytometric analysis of S-phase fraction and cell cycle kinetics was performed using a FACSCalibur (Becton Dickinson, San Jose, Calif.) with CELL Quest, version 3.3 software (15). CD133 studies were performed using the same instrument, with antibodies from Miltenyi (Miltenyi Biotec, Auburn, Calif.) according to the manufacturer's instructions. […] Prior to analysis, cells were washed and resuspended in 2 μg/ml PI (Sigma, St. Louis, Mo.). […] To ensure proper identification of SP cells, cells were incubated as above with the addition of 50 μM verapamil (Sigma).

D425Med = assay: as above; assay type: cell-based
Experimental: as §1, §2

DAOY = assay: as above; assay type: cell-based
Experimental: as §1, §2

| SMILES | side population (neuroblastoma cell lines) | side population (D283Med) | side population (D425Med) | Hoechst excretion (side population) (DAOY) |
| --- | --- | --- | --- | --- |
| O=C1c2c(O)ccc(O)c2C(=O)c2c(NCCNCCO)ccc(NCCNCCO)c21 [Mitoxantrone] | increases the side population | – | – | – |
| COc1ccc(CCN(C)CCCC(C#N)(c2ccc(OC)c(OC)c2)C(C)C)cc1OC (stereo not shown) [verapamil, reference compound] | – | ablated | ablated | abolished Hoechst excretion |
